The source of these data is patent US11344554B2, “Animal and human anti-malarial agents” (Celgene Corporation, priority 2016, dated 2022).

The IC50 is the concentration at which inhibition is half-maximal.

The experiment has as its system Plasmodium falciparum. In words: Plasmodium falciparum in vitro [3H]-hypoxanthine parasite growth inhibition assay. To be noted: Erythrocyte, P. falciparum asexual blood stage parasites in human erythrocytes, [3H]-hypoxanthine uptake, read-out: Act Class (IC50 activity level). The format is cell-based.
Take `CC(C)(C)Nc1ncc2nc(Nc3cccc(Cl)c3)n(CCn3ccnc3)c2n1` [Cpd 1, 9-(2-(1H-imidazol-1-yl)ethyl)-N2-tert-butyl-N8-(3-chlorophenyl)-9H-purine-2,8-diamine]: the IC50 lay within 200 to 500 nM.

As for `CC(C)(C)Nc1ncc2nc(Nc3ccc(C(F)(F)F)cc3)n(C3CCNCC3)c2n1` [Cpd 2, N2-tert-butyl-9-(piperidin-4-yl)-N8-(4-(trifluoromethyl)phenyl)-9H-purine-2,8-diamine], the IC50 lay within 200 to 500 nM.

As to `CC(C)(C)Nc1ncc2nc(Nc3cccc(C(F)(F)F)c3)n(C3CCNCC3)c2n1` [Cpd 3, N2-tert-butyl-9-(piperidin-4-yl)-N8-(3-(trifluoromethyl)phenyl)-9H-purine-2,8-diamine], the half-maximal inhibitory concentration (IC50) is less than 100 nM.

As to `CC(C)(C)Nc1ncc2nc(Nc3cccc(C(F)(F)F)c3)n(C3CCN(CCN)CC3)c2n1` [Cpd 4, 9-(1-(2-aminoethyl)piperidin-4-yl)-N2-tert-butyl-N8-(3-(trifluoromethyl)phenyl)-9H-purine-2,8-diamine], the IC50 was less than 100 nM.

`CC(C)(C)Nc1ncc2nc(Nc3ccc(C(F)(F)F)cc3)n(C3CCN(CCN)CC3)c2n1` [Cpd 5, 9-(1-(2-aminoethyl)piperidin-4-yl)-N2-tert-butyl-N8-(4-(trifluoromethyl)phenyl)-9H-purine-2,8-diamine]: the IC50 was 100 to 200 nM.

Regarding `CC(C)(C)Nc1ncc2nc(Nc3ccc(Cl)c(Cl)c3)n(C3CCNCC3)c2n1` [Cpd 6, N2-tert-butyl-N8-(3,4-dichlorophenyl)-9-(piperidin-4-yl)-9H-purine-2,8-diamine], the IC50 is less than 100 nM.

Take `CC(C)(C)Nc1ncc2nc(Nc3ccc(Cl)cc3)n(C3CCNCC3)c2n1` [Cpd 7, N2-tert-butyl-N8-(4-chlorophenyl)-9-(piperidin-4-yl)-9H-purine-2,8-diamine]: the IC50 was 100 to 200 nM.

Regarding `CC(C)(C)Nc1ncc2nc(Nc3cccc(C(F)(F)F)c3)n(CCCN)c2n1` [Cpd 11, 9-(3-aminopropyl)-N2-tert-butyl-N8-(3-(trifluoromethyl)phenyl)-9H-purine-2,8-diamine], the IC50 lay within 200 to 500 nM.

On to `CC(C)(C)Nc1ncc2nc(Nc3ccc(C#N)cc3)n(C3CCNCC3)c2n1` [Cpd 14, 4-(2-(tert-butylamino)-9-(piperidin-4-yl)-9H-purin-8-ylamino)benzonitrile], for which the IC50 was in the range of 500 to 1200 nM.

`CC1(Nc2ncc3nc(Nc4ccc(C(F)(F)F)cc4)n(C4CCNCC4)c3n2)CCOCC1` [Cpd 15, N2-(4-methyltetrahydro-2H-pyran-4-yl)-9-(piperidin-4-yl)-N8-(4-(trifluoromethyl)phenyl)-9H-purine-2,8-diamine]: the IC50 lay in the range of 100 to 200 nM.

For `CC1(Nc2ncc3nc(Nc4cccc(Cl)c4)n(CCN4CCCCC4)c3n2)CCOCC1` [Cpd 16, N8-(3-chlorophenyl)-N2-(4-methyltetrahydro-2H-pyran-4-yl)-9-(2-(piperidin-1-yl)ethyl)-9H-purine-2,8-diamine], the IC50 was in the range of 500 to 1200 nM.

`CC1(Nc2ncc3nc(Nc4cccc(Cl)c4)n(CCN4CCCC4)c3n2)CCOCC1` [Cpd 17, N8-(3-chlorophenyl)-N2-(4-methyltetrahydro-2H-pyran-4-yl)-9-(2-(pyrrolidin-1-yl)ethyl)-9H-purine-2,8-diamine]: the IC50 lay within 500 to 1200 nM.

As to `CC(C)(C)Nc1ncc2nc(Nc3cccc(C(F)(F)F)c3)n(CCC3CCNC3)c2n1` (centres unmarked) [Cpd 18, N2-tert-butyl-9-(2-(pyrrolidin-3-yl)ethyl)-N8-(3-(trifluoromethyl)phenyl)-9H-purine-2,8-diamine], the IC50 lay within 100 to 200 nM.

As to `CC(C)(C)Nc1ncc2nc(Nc3cccc(C(F)(F)F)c3)n(CCC3CCCN3)c2n1` (centres unmarked) [Cpd 19, N2-tert-butyl-9-(2-(pyrrolidin-2-yl)ethyl)-N8-(3-(trifluoromethyl)phenyl)-9H-purine-2,8-diamine], the IC50 was 200 to 500 nM.

As for `CC(C)(C)Nc1ncc2nc(Nc3cc(Cl)cc(Cl)c3)n(C3CCNCC3)c2n1` [Cpd 20, N2-tert-butyl-N8-(3,5-dichlorophenyl)-9-(piperidin-4-yl)-9H-purine-2,8-diamine], the IC50 was less than 100 nM.

In the case of `CC(C)(C)Nc1ncc2nc(Nc3ccc(OC(F)(F)F)cc3)n(C3CCNCC3)c2n1` [Cpd 21, N2-tert-butyl-9-(piperidin-4-yl)-N8-(4-(trifluoromethoxy)phenyl)-9H-purine-2,8-diamine], the IC50 is 100 to 200 nM.

`CC(C)(C)Nc1ncc2nc(Nc3cccc(C(F)(F)F)c3)n(CCN3CCNCC3)c2n1` [Cpd 22, N2-tert-butyl-9-(2-(piperazin-1-yl)ethyl)-N8-(3-(trifluoromethyl)phenyl)-9H-purine-2,8-diamine]: the IC50 is 500 to 1200 nM.

As to `CC(C)(C)Nc1ncc2nc(Nc3cccc(C(F)(F)F)c3)n(CC3CCNCC3)c2n1` [Cpd 23, N2-tert-butyl-9-(piperidin-4-ylmethyl)-N8-(3-(trifluoromethyl)phenyl)-9H-purine-2,8-diamine], the IC50 was in the range of 500 to 1200 nM.

As to `CC(C)(C)Nc1ncc2nc(Nc3cccc(C(F)(F)F)c3)n(CC3CCNC3)c2n1` (centres unmarked) [Cpd 24, N2-tert-butyl-9-(pyrrolidin-3-ylmethyl)-N8-(3-(trifluoromethyl)phenyl)-9H-purine-2,8-diamine], the half-inhibitory concentration (IC50) is 200 to 500 nM.

As for `CC1(Nc2ncc3nc(Nc4cccc(C(F)(F)F)c4)n(C4CCNCC4)c3n2)CCOCC1` [Cpd 25, N2-(4-methyltetrahydro-2H-pyran-4-yl)-9-(piperidin-4-yl)-N8-(3-(trifluoromethyl)phenyl)-9H-purine-2,8-diamine], the half-inhibitory concentration (IC50) is 500 to 1200 nM.

With `CC(C)(C)Nc1ncc2nc(Nc3cc(F)cc(Cl)c3)n(C3CCNCC3)c2n1` [Cpd 26, N2-tert-butyl-N8-(3-chloro-5-fluorophenyl)-9-(piperidin-4-yl)-9H-purine-2,8-diamine], the 50% inhibitory concentration (IC50) was less than 100 nM.

On to `CC(C)(C)Nc1ncc2nc(Nc3cc(Cl)cc(C(F)(F)F)c3)n(C3CCNCC3)c2n1` [Cpd 27, N2-tert-butyl-N8-(3-chloro-5-(trifluoromethyl)phenyl)-9-(piperidin-4-yl)-9H-purine-2,8-diamine], for which the IC50 is less than 100 nM.

For the compound `CC(C)(C)Nc1ncc2nc(Nc3cc(F)cc(F)c3)n(C3CCNCC3)c2n1` [Cpd 28, N2-tert-butyl-N8-(3,5-difluorophenyl)-9-(piperidin-4-yl)-9H-purine-2,8-diamine], the 50% inhibitory concentration (IC50) fell in the range of 100 to 200 nM.

As for `CC(C)(C)Nc1ncc2nc(Nc3cccc(OC(F)(F)F)c3)n(C3CCNCC3)c2n1` [Cpd 29, N2-tert-butyl-9-(piperidin-4-yl)-N8-(3-(trifluoromethoxy)phenyl)-9H-purine-2,8-diamine], the IC50 is less than 100 nM.

`CC(C)(C)Nc1ncc2nc(Nc3cncc(Cl)c3)n(C3CCNCC3)c2n1` [Cpd 30, N2-tert-butyl-N8-(5-chloropyridin-3-yl)-9-(piperidin-4-yl)-9H-purine-2,8-diamine]: the concentration for half-maximal inhibition (IC50) lay within 500 to 1200 nM.

`CC(C)(C)Nc1ncc2nc(Nc3ccnc(C(F)(F)F)c3)n(C3CCNCC3)c2n1` [Cpd 31, N2-tert-butyl-9-(piperidin-4-yl)-N8-(2-(trifluoromethyl)pyridin-4-yl)-9H-purine-2,8-diamine]: the IC50 lay in the range of 200 to 500 nM.

Consider `CN(C)CCCn1c(Nc2cccc(C(F)(F)F)c2)nc2cnc(NC(C)(C)C)nc21` [Cpd 32, N2-tert-butyl-9-(3-(dimethylamino)propyl)-N8-(3-(trifluoromethyl)phenyl)-9H-purine-2,8-diamine], for which the IC50 is 500 to 1200 nM.

Turning to `CC(C)(C)Nc1ncc2nc(Nc3cccc(C(F)F)c3)n(C3CCNCC3)c2n1` [Cpd 33, N2-tert-butyl-N8-(3-(difluoromethyl)phenyl)-9-(piperidin-4-yl)-9H-purine-2,8-diamine], the IC50 fell in the range of 200 to 500 nM.

Turning to `Clc1cc(Cl)cc(Nc2nc3cnc(NC4CC4)nc3n2C2CCNCC2)c1` [Cpd 34, N2-cyclopropyl-N8-(3,5-dichlorophenyl)-9-(piperidin-4-yl)-9H-purine-2,8-diamine], the IC50 fell in the range of 200 to 500 nM.

As for `CC(C)(C)Nc1ncc2nc(Nc3cc(Cl)cc(Cl)c3)n(C3CCN(CCN)CC3)c2n1` [Cpd 35, 9-(1-(2-aminoethyl)piperidin-4-yl)-N2-tert-butyl-N8-(3,5-dichlorophenyl)-9H-purine-2,8-diamine], the IC50 fell in the range of 200 to 500 nM.

Turning to `CN1CCC(n2c(Nc3ccc(Cl)c(Cl)c3)nc3cnc(NC(C)(C)C)nc32)CC1` [Cpd 36, N2-tert-butyl-N8-(3,4-dichlorophenyl)-9-(1-methylpiperidin-4-yl)-9H-purine-2,8-diamine], the concentration for half-maximal inhibition (IC50) is less than 100 nM.

As for `CCN1CCC(n2c(Nc3ccc(Cl)c(Cl)c3)nc3cnc(NC(C)(C)C)nc32)CC1` [Cpd 37, N2-tert-butyl-N8-(3,4-dichlorophenyl)-9-(1-ethylpiperidin-4-yl)-9H-purine-2,8-diamine], the 50% inhibitory concentration (IC50) is less than 100 nM.

Take `CC(C)(C)Nc1ncc2nc(Nc3cc(Cl)cc(C(F)(F)F)c3)n(C3CCN(CCN)CC3)c2n1` [Cpd 39, 9-(1-(2-aminoethyl)piperidin-4-yl)-N2-tert-butyl-N8-(3-chloro-5-(trifluoromethyl)phenyl)-9H-purine-2,8-diamine]: the IC50 was less than 100 nM.

`FC(F)(F)c1cc(Cl)cc(Nc2nc3cnc(NC4CC4)nc3n2C2CCNCC2)c1` [Cpd 40, N8-(3-chloro-5-(trifluoromethyl)phenyl)-N2-cyclopropyl-9-(piperidin-4-yl)-9H-purine-2,8-diamine]: the IC50 is less than 100 nM.

With `CC1(Nc2ncc3nc(Nc4cc(Cl)cc(Cl)c4)n(C4CCNCC4)c3n2)CC1` [Cpd 41, N8-(3,5-dichlorophenyl)-N2-(1-methylcyclopropyl)-9-(piperidin-4-yl)-9H-purine-2,8-diamine], the 50% inhibitory concentration (IC50) is less than 100 nM.

In the case of `CC1(Nc2ncc3nc(Nc4cc(Cl)cc(C(F)(F)F)c4)n(C4CCNCC4)c3n2)CC1` [Cpd 42, N8-(3-chloro-5-(trifluoromethyl)phenyl)-N2-(1-methylcyclopropyl)-9-(piperidin-4-yl)-9H-purine-2,8-diamine], the IC50 is less than 100 nM.

In the case of `CC(C)Nc1ncc2nc(Nc3cc(Cl)cc(Cl)c3)n(C3CCNCC3)c2n1` [Cpd 43, N8-(3,5-dichlorophenyl)-N2-isopropyl-9-(piperidin-4-yl)-9H-purine-2,8-diamine], the IC50 is less than 100 nM.

In the case of `CC(C)Nc1ncc2nc(Nc3cc(Cl)cc(C(F)(F)F)c3)n(C3CCNCC3)c2n1` [Cpd 44, N8-(3-chloro-5-(trifluoromethyl)phenyl)-N2-isopropyl-9-(piperidin-4-yl)-9H-purine-2,8-diamine], the IC50 was less than 100 nM.
